How the values were obtained:
[1] = biological target: Beta Secretase enzyme (BACE) (Homo sapiens, UniProt P56817); test: In vitro enzymatic BACE FRET (fluorescence resonance energy transfer) assay; format: biochemical; details: average IC50, enzyme assay; read-out: BACE 1 FRET assay
How it was run: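 Run in 0.05 M acetate pH 4.2 with 10% DMSO final and 100 uM genapol; started by adding 50 nM FRET peptide substrate (fluorophore and quencher flanking the cleavage site), incubated one hour, then stopped with Tris to neutral pH before reading fluorescence.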

[2] = test system: Aβ40 in conditioned medium of cells stably expressing Amyloid Precursor Protein (APP); test: In vitro BACE cell-based assay (Aβ40 in conditioned medium, sandwich ELISA); details: Homo sapiens, HEK293, average IC50, HEK cells; read-out: HEK cell assay
How it was run: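 Quantification relied on pAb40/6E10 sandwich ELISA with Europium fluorescence counts, and IC50 was fitted versus concentration.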

Chain of Beta Secretase enzyme (BACE) (P56817 46-501, species assumed): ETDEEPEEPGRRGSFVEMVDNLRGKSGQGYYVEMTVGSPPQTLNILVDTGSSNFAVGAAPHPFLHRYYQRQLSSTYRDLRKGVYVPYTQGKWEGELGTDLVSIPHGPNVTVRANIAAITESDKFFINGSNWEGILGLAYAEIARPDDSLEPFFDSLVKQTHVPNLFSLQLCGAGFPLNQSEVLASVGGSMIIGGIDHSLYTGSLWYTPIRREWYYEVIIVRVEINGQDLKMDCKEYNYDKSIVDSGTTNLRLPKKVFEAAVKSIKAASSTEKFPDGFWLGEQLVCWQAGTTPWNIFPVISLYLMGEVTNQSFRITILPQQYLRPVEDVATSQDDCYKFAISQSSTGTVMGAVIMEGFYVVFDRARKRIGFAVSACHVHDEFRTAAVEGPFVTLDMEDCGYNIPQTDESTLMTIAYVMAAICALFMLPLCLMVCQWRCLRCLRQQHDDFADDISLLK

**Q.** How did the IC50 [1] turn out when `COC(C)(C)C#Cc1cnc2c(c1)[C@@]1(COC(N)=N1)c1cc(-c3cncc(F)c3)c(F)cc1O2` [Example 642, (5R)-8-fluoro-7-(5-fluoro-3-pyridinyl)-3-(3-methoxy-3-methyl-1-butyn-1-yl)spiro[chromeno[2,3-b]pyridine-5,4′-[1,3]oxazol]-2′-amine] was run?
**A.** 109 nM

**Q.** What about the IC50 [2] of the same molecule?
**A.** 435 nM

**Q.** Which results are given for `COC(C)(C)C#Cc1cnc2c(c1)[C@]1(COC(N)=N1)c1cc(-c3cncnc3)c(F)cc1O2` [Example 643, (5S)-8-fluoro-3-(3-methoxy-3-methyl-1-butyn-1-yl)-7-(5-pyrimidinyl)spiro[chromeno[2,3-b]pyridine-5,4′-[1,3]oxazol]-2′-amine]?
**A.** IC50 [1]: 1.1 nM; IC50 [2]: 15 nM

**Q.** What does the source list for `COC(C)(C)C#Cc1cnc2c(c1)[C@@]1(COC(N)=N1)c1cc(-c3cncnc3)c(F)cc1O2` [Example 644, (5R)-8-fluoro-3-(3-methoxy-3-methyl-1-butyn-1-yl)-7-(5-pyrimidinyl)spiro[chromeno[2,3-b]pyridine-5,4′-[1,3]oxazol]-2′-amine]?
**A.** IC50 [1]: 68.2 nM; IC50 [2]: 228 nM

**Q.** How did the IC50 [1] turn out when `NC1=N[C@]2(CO1)c1cc(-c3cnccc3F)c(F)cc1Oc1ncc(C3=CCOCC3)cc12` [Example 645, (5R)-3-(3,6-dihydro-2H-pyran-4-yl)-8-fluoro-7-(4-fluoro-3-pyridinyl)spiro[chromeno[2,3-b]pyridine-5,4′-[1,3]oxazol]-2′-amine] was run?
**A.** 53.1 nM

**Q.** And the IC50 [2]?
**A.** 291 nM

**Q.** With `NC1=N[C@@]2(CO1)c1cc(-c3cnccc3F)c(F)cc1Oc1ncc(C3=CCOCC3)cc12` [Example 646, (5S)-3-(3,6-dihydro-2H-pyran-4-yl)-8-fluoro-7-(4-fluoro-3-pyridinyl)spiro[chromeno[2,3-b]pyridine-5,4′-[1,3]oxazol]-2′-amine] as the molecule, how does the IC50 [1] read?
**A.** 2.2 nM

**Q.** What about the IC50 [2] of the same molecule?
**A.** 16 nM

**Q.** For `NC1=N[C@@]2(CO1)c1cc(-c3cncc(F)c3)c(F)cc1Oc1ncc(C3=CCOCC3)cc12` [Example 647, (5S)-3-(3,6-dihydro-2H-pyran-4-yl)-8-fluoro-7-(5-fluoro-3-pyridinyl)spiro[chromeno[2,3-b]pyridine-5,4-[1,3]oxazol]-2′-amine], which IC50 [1] is on record?
**A.** 2.1 nM

**Q.** And the IC50 [2]?
**A.** 16 nM

**Q.** For `NC1=N[C@]2(CO1)c1cc(-c3cncc(F)c3)c(F)cc1Oc1ncc(C3=CCOCC3)cc12` [Example 648, (5R)-3-(3,6-dihydro-2H-pyran-4-yl)-8-fluoro-7-(5-fluoro-3-pyridinyl)spiro[chromeno[2,3-b]pyridine-5,4′-[1,3]oxazol]-2′-amine], which IC50 [1] is on record?
**A.** 330 nM

**Q.** And the IC50 [2]?
**A.** 2780 nM

**Q.** What does the source list for `Cc1ncc(-c2cc(F)c3c(c2)[C@]2(COC(N)=N2)c2cc(-c4ccc(F)nc4)ccc2O3)cn1` [Example 649, (4S)-4′-fluoro-7′-(6-fluoro-3-pyridinyl)-2′-(2-methyl-5-pyrimidinyl)spiro[1,3-oxazole-4,9′-xanthen]-2-amine]?
**A.** IC50 [1]: 19.8 nM; IC50 [2]: 118 nM

**Q.** `COc1cc(F)c2c(c1)[C@]1(CSC(N)=N1)c1cc(-c3cccnc3)ccc1O2` [Example 650, (4S)-4′-fluoro-2′-methoxy-7′-(3-pyridinyl)spiro[1,3-thiazole-4,9′-xanthen]-2-amine] was tested. Which IC50 [1] did it give?
**A.** 9 nM

**Q.** And the IC50 [2]?
**A.** 251 nM

**Q.** With `CC#Cc1cc(F)c2c(c1)[C@]1(COC(N)=N1)c1cc(-c3cccnc3F)ccc1O2` [Example 651, (4S)-4′-fluoro-7′-(2-fluoro-3-pyridinyl)-2′-(1-propyn-1-yl)spiro[1,3-oxazole-4,9′-xanthen]-2-amine] as the molecule, how does the IC50 [1] read?
**A.** 1.9 nM

**Q.** What about the IC50 [2] of the same molecule?
**A.** 37 nM

**Q.** Which IC50 [1] does the source give for `COc1ccncc1-c1ccc2c(c1)[C@@]1(COC(N)=N1)c1cc(Cl)ncc1O2` [Example 652, (5S)-3-chloro-7-(4-methoxy-3-pyridinyl)spiro[chromeno[2,3-c]pyridine-5,4′-[1,3]oxazol]-2′-amine] here?
**A.** 1220 nM

**Q.** What about the IC50 [2] of the same molecule?
**A.** 2170 nM

**Q.** `COc1ccncc1-c1ccc2c(c1)[C@@]1(COC(N)=N1)c1cc(C3=CCOCC3)ncc1O2` [Example 653, (5S)-3-(3,6-dihydro-2H-pyran-4-yl)-7-(4-methoxy-3-pyridinyl)spiro[chromeno[2,3-c]pyridine-5,4′-[1,3]oxazol]-2′-amine] was tested. Which IC50 [1] did it give?
**A.** 10.4 nM

**Q.** And the IC50 [2]?
**A.** 9 nM

**Q.** For `Cc1ccncc1-c1ccc2c(c1)[C@@]1(COC(N)=N1)c1cc(C3=CCOCC3)ncc1O2` [Example 654, (5S)-3-(3,6-dihydro-2H-pyran-4-yl)-7-(4-methyl-3-pyridinyl)spiro[chromeno[2,3-c]pyridine-5,4′-[1,3]oxazol]-2′-amine], which IC50 [1] is on record?
**A.** 6.1 nM

**Q.** And the IC50 [2]?
**A.** 13 nM

**Q.** For `N#Cc1ccncc1-c1ccc2c(c1)[C@@]1(COC(N)=N1)c1cc(Cl)ncc1O2` [Example 655, 3-((5S)-2′-amino-3-chlorospiro[chromeno[2,3-c]pyridine-5,4′-[1,3]oxazol]-7-yl)-4-pyridinecarbonitrile], which IC50 [1] is on record?
**A.** 600 nM

**Q.** And the IC50 [2]?
**A.** 10000 nM

**Q.** Which IC50 [1] does the source give for `N#Cc1ccncc1-c1ccc2c(c1)[C@@]1(COC(N)=N1)c1cc(C3=CCOCC3)ncc1O2` [Example 656, 3-((5S)-2′-amino-3-(3,6-dihydro-2H-pyran-4-yl)spiro[chromeno[2,3-c]pyridine-5,4′-[1,3]oxazol]-7-yl)-4-pyridinecarbonitrile] here?
**A.** 10.4 nM

**Q.** And the IC50 [2]?
**A.** 66 nM

**Q.** For `NC1=N[C@@]2(CO1)c1cc(-c3cccnc3F)ccc1Oc1c2cc(C2=CCCCO2)nc1F` [Example 657, (5S)-3-(3,4-dihydro-2H-pyran-6-yl)-1-fluoro-7-(2-fluoro-3-pyridinyl)spiro[chromeno[2,3-c]pyridine-5,4′-[1,3]oxazol]-2′-amine], which IC50 [1] is on record?
**A.** 0.4 nM

**Q.** What about the IC50 [2] of the same molecule?
**A.** 5 nM

**Q.** `NC1=N[C@@]2(CO1)c1cc(-c3cccnc3F)ccc1Oc1c2ccnc1F` [Example 658, (5S)-1-fluoro-7-(2-fluoro-3-pyridinyl)spiro[chromeno[2,3-c]pyridine-5,4′-[1,3]oxazol]-2′-amine] was tested. Which IC50 [1] did it give?
**A.** 27.2 nM

**Q.** And the IC50 [2]?
**A.** 846 nM

**Q.** With `NC1=N[C@@]2(CO1)c1cc(-c3cccnc3F)ccc1Oc1c2cc([C@@H]2CCCCO2)nc1F` [Example 659, (5S)-1-fluoro-7-(2-fluoro-3-pyridinyl)-3-((2S)-tetrahydro-2H-pyran-2-yl)spiro[chromeno[2,3-c]pyridine-5,4′-[1,3]oxazol]-2′-amine] as the molecule, how does the IC50 [1] read?
**A.** 1.4 nM

**Q.** What about the IC50 [2] of the same molecule?
**A.** 19 nM

**Q.** What does the source list for `NC1=N[C@@]2(CO1)c1cc(-c3cccnc3F)ccc1Oc1c2cc([C@H]2CCCCO2)nc1F` [Example 660, (5S)-1-fluoro-7-(2-fluoro-3-pyridinyl)-3-((2R)-tetrahydro-2H-pyran-2-yl)spiro[chromeno[2,3-c]pyridine-5,4′-[1,3]oxazol]-2′-amine]?
**A.** IC50 [1]: 0.5 nM; IC50 [2]: 8 nM

**Q.** For `CC1(C#Cc2cc(F)c3c(c2)C2(COC(N)=N2)c2cc(-c4cncc(F)c4)ncc2O3)COC1` (stereo not shown) [Example 661, 9-fluoro-3-(5-fluoro-3-pyridinyl)-7-((3-methyl-3-oxetanyl)ethynyl)spiro[chromeno[2,3-c]pyridine-5,4′-[1,3]oxazol]-2′-amine], which IC50 [1] is on record?
**A.** 18 nM

**Q.** What about the IC50 [2] of the same molecule?
**A.** 852 nM

**Q.** With `CC1(C#Cc2cc(F)c3c(c2)C2(COC(N)=N2)c2cc(-c4cccnc4F)ncc2O3)COC1` (stereo not shown) [Example 662, 9-fluoro-3-(2-fluoro-3-pyridinyl)-7-((3-methyl-3-oxetanyl)ethynyl)spiro[chromeno[2,3-c]pyridine-5,4′-[1,3]oxazol]-2′-amine] as the molecule, how does the IC50 [1] read?
**A.** 3.3 nM

**Q.** And the IC50 [2]?
**A.** 129 nM

**Q.** How did the IC50 [1] turn out when `COc1ccc2c(c1)[C@@]1(COC(N)=N1)c1cc(-n3nccc3C)cc(F)c1O2` [Example 663, (4S)-4′-fluoro-7′-methoxy-2′-(5-methyl-1H-pyrazol-1-yl)spiro[1,3-oxazole-4,9′-xanthen]-2-amine] was run?
**A.** 430 nM

**Q.** What about the IC50 [2] of the same molecule?
**A.** 8520 nM

**Q.** With `COc1ccc2c(c1)[C@@]1(COC(N)=N1)c1cc(-n3ccc(C)n3)cc(F)c1O2` [Example 664, (4S)-4′-fluoro-7′-methoxy-2′-(3-methyl-1H-pyrazol-1-yl)spiro[1,3-oxazole-4,9′-xanthen]-2-amine] as the molecule, how does the IC50 [1] read?
**A.** 1000 nM

**Q.** And the IC50 [2]?
**A.** 6670 nM

**Q.** For `NC1=N[C@@]2(CO1)c1cc(O)ccc1Oc1c(F)cc(-n3cccn3)cc12` [Example 665, (4S)-2-amino-5′-fluoro-7′-(1H-pyrazol-1-yl)spiro[1,3-oxazole-4,9′-xanthen]-2′-ol], which IC50 [1] is on record?
**A.** 1100 nM

**Q.** What about the IC50 [2] of the same molecule?
**A.** 4580 nM

**Q.** What does the source list for `CC1(C#Cc2cnc3c(c2)[C@]2(CSC(N)=N2)c2cc(-c4cnccn4)ccc2O3)COC1` [Example 666, (5S)-3-((3-methyl-3-oxetanyl)ethynyl)-7-(2-pyrazinyl)spiro[chromeno[2,3-b]pyridine-5,4′-[1,3]thiazol]-2′-amine]?
**A.** IC50 [1]: 0.8 nM; IC50 [2]: 13 nM

**Q.** How did the IC50 [1] turn out when `CC(C)(C#N)COc1cc(F)c2c(c1)[C@]1(COC(N)=N1)c1cc(-c3cncnc3)c(F)cc1O2` [Example 667, 3-(((4S)-2-amino-4′,6′-difluoro-7′-(5-pyrimidinyl)spiro[1,3-oxazole-4,9′-xanthen]-2′-yl)oxy)-2,2-dimethylpropanenitrile] was run?
**A.** 0.6 nM

**Q.** And the IC50 [2]?
**A.** 16 nM

**Q.** `CC1(C)CC(c2cnc3c(c2)[C@]2(CSC(N)=N2)c2cc(-c4cncnc4)ccc2O3)=CCO1` [Example 669, (5S)-3-(2,2-dimethyl-3,6-dihydro-2H-pyran-4-yl)-7-(5-pyrimidinyl)spiro[chromeno[2,3-b]pyridine-5,4′-[1,3]thiazol]-2′-amine] was tested. Which IC50 [1] did it give?
**A.** 0.8 nM

**Q.** And the IC50 [2]?
**A.** 10 nM

**Q.** With `CC1(C)C=C(c2cnc3c(c2)[C@]2(CSC(N)=N2)c2cc(-c4cncnc4)ccc2O3)CCO1` [Example 670, (5S)-3-(6,6-dimethyl-3,6-dihydro-2H-pyran-4-yl)-7-(5-pyrimidinyl)spiro[chromeno[2,3-b]pyridine-5,4′-[1,3]thiazol]-2′-amine] as the molecule, how does the IC50 [1] read?
**A.** 0.9 nM

**Q.** And the IC50 [2]?
**A.** 9 nM

**Q.** Which IC50 [1] does the source give for `COC(C)(C)C#Cc1ccc2c(c1)[C@@]1(CSC(N)=N1)c1cc(-c3cccnc3)cnc1O2` [Example 671, (5S)-7-(3-methoxy-3-methyl-1-butyn-1-yl)-3-(3-pyridinyl)spiro[chromeno[2,3-b]pyridine-5,4′-[1,3]thiazol]-2′-amine] here?
**A.** 19 nM

**Q.** What about the IC50 [2] of the same molecule?
**A.** 140 nM

From patent US8883782B2, “Spiro-tetracyclic ring compounds as beta-secretase modulators and methods of use” (Amgen Inc., priority 2010, dated 2014)
